Measurements: patent EP4514928B1, “USE OF AN ANTIOXIDANT FOR REDUCING AND/OR PREVENTING THE TOXICITY OF A LUBRICANT COMPOSITION” (priority 2022, dated 2023)

Tests used:
vie aquatique = details: long-term effects; cited from earlier work
Planaires adultes entier = details: adult planarians, 12 days, checks at 7 and 12 days, 0,22 mg/L - 22 mg/L; for Concentration à partir de laquelle une mortalité significative du planaire est observée: according to Zhang et al. 2019; for Concentration à partir de laquelle sont observés des troubles du comportement potentiellement liés à des troubles cognitifs du planaire: adhérence, vitesse de déplacement, repos, phototaxie, scrunching
Method: La méthodologie utilisée est la suivante Tous les composés sont fournis sous forme de poudres. Un volume approprié de DMSO 100 % (Sigma) a été ajouté, comme indiqué sur les tubes, pour obtenir une solution mère à 4,4 mg/ml (soit 200 fois plus concentrée que la concentration maximale de test).

[1] = cited from earlier work

Compound | Toxicité (Informations ECHA - 2021): vie aquatique (écotoxique) (vie aquatique) | Concentration à partir de laquelle une mortalité significative du planaire est observée (Planaires adultes entier) | Concentration à partir de laquelle sont observés des troubles du comportement potentiellement liés à des troubles cognitifs du planaire (Planaires adultes entier) | Toxicité (Informations ECHA - 2021): toxicité aiguë ([1]; if swallowed) | Toxicité (Informations ECHA - 2021): dommages aux organes ([1]; prolonged or repeated exposure)
c1ccc(Nc2cccc3ccccc23)cc1 [compound 19, N-phénylnaphthalène-1-amine] | Est très toxique pour la vie aquatique avec des effets à long terme (écotoxique) | 6,9 mg/L | 2,2 -3,9 mg/L | est nocif s'il est avalé (toxicité aiguë) | peut causer des dommages aux organes par exposition prolongée ou répétée
CC(C)CC(C)Nc1ccc(Nc2ccccc2)cc1 (centres unmarked) [compound 22, N-(1,3-Diméthylbutyl)-N'-phényl-p-phénylènediamine] | – | 4,8 mg/L | 1,5 mg/L | – | –
Bis(nonylphényl)amine [Irganox® L67] | Est nocif pour la vie aquatique avec des effets à long terme (écotoxique) https://echa.europa.eu/fr/substance-information/-/substanceinfo/100.048.393 Evaluation en 2021 pour suspicion de Mutagénicité et PBT | – | – | – | –
